Measurements as given in patent US6967196B1, “Sulfonamide compounds and uses thereof” (Bristol-Myers Squibb Company, priority 1999, dated 2005).
Where a name gives a salt, the structure may show the parent alone. Read-outs that look alike come from different tables or passages of the source. Blank lines part the entries; values can stand above or below the compound they belong to.

Test system: amyloid β production in transfected H4 (human neuroglioma) cells stably expressing APP constructs
Assay: In vitro cell-based assay of inhibitors of amyloid β production (ELISA)
Procedure, shortened: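 Cells expressing wild-type or variant APP were plated ≥6 h before medium was replaced with compound-containing medium (initial screen 10-100 μM) and incubated ~16 h. Secreted Aβ in medium was quantified by sandwich ELISA (C-terminal-specific mouse monoclonal capture, N-terminal rabbit polyclonal detection) against an Aβ standard curve.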

[1] = Homo sapiens, 16 h, transfected H4 cells stably expressing APP, approximately 16 hours incubation, amyloid β in medium by ELISA, read-out: ACTIVITY (IC50, inhibition of amyloid β production)
[2] = transfected H4 cells stably expressing APP, approximately 16 hours incubation, amyloid β in medium by ELISA, read-out: ACTIVITY (IC50, inhibition of amyloid β production)
[3] = transfected H4 cells stably expressing APP, approx. 16 h incubation, amyloid β in medium by ELISA, read-out: ACTIVITY (IC50, inhibition of amyloid β production)
[4] = Homo sapiens, 16 h, transfected H4 cells expressing APP, approximately 16 hours incubation, amyloid β in medium by ELISA, read-out: ACTIVITY (IC50, inhibition of amyloid β production)
[5] = transfected H4 cells stably expressing APP constructs, approximately 16 hours incubation, amyloid β in medium by ELISA, read-out: ACTIVITY (IC50, inhibition of amyloid β production)
[6] = Homo sapiens, 16 h, transfected H4 cells stably expressing APP constructs, approximately 16 hours incubation, amyloid β in medium by ELISA, read-out: ACTIVITY (IC50, inhibition of amyloid β production)

IC50 [1]: > 500 nM
Compound: C[C@H](c1ccc(F)cc1CCCC1=NCCCN1)N(c1cc(F)ccc1F)S(=O)(=O)c1ccc(Cl)cc1 [Example 1008, 4-chloro-N-(2,5-difluorophenyl)-N-((1R)-1-{4-fluoro-2-[3-(1,4,5,6-tetrahydro-2-pyrimidinyl)propyl]phenyl}ethyl)benzenesulfonamide hydrochloride]

IC50 [2]: > 500 nM
Compound: O=C(OC[C@H](c1ccccc1)N(c1cc(F)ccc1F)S(=O)(=O)c1ccc(Cl)cc1)c1cccnc1 [Example 1006, (2S)-2-({[(4-chlorophenyl)sulfonyl]-2,5-difluoroanilino}-2-phenylethyl nicotinate]

IC50 [3]: 100 to 500 nM
Compound: N-{3-[2-(1-{[(4-chlorophenyl)sulfonyl]-2,5-difluoroanilino}ethyl)phenoxy]propyl}-4-nitrobenzamide [Example 805]

Compound: O=S(=O)(c1ccc(Cl)cc1)N(Cc1cc(F)ccc1OCCCN1CCCCC1)c1cc(F)ccc1F [Example 231, 4-Chloro-N-(2,5-difluorophenyl)-N-{5-fluoro-2-[3-(1-piperidinyl)propoxy]benzyl}benzenesulfonamide Hydrochloride]
IC50 (read-out: ACTIVITY (inhibitory concentration IC50, inhibition of amyloid β production)): 25 to 50 nM

IC50 [4]: 100 to 500 nM
Compound: C[C@H](C(=O)NCc1cccs1)N(c1cc(Cl)ccc1F)S(=O)(=O)c1ccc(Cl)cc1 [Example 1357]

Compound: CCS(=O)(=O)CCC[C@@H](C)N(c1cc(F)ccc1F)S(=O)(=O)c1ccc(Cl)cc1 [Example 1166, 4-chloro-N-[2,5-difluorophenyl]-N-[1(R)-methyl-(4-ethylsulfonyl)butyl]benzenesulfonamide]
IC50 [5]: ≤ 25 nM

Compound: O=S(=O)(c1ccc(Cl)cc1)N(Cc1ccccc1OCCCN1CCC(Cc2ccccc2)CC1)c1ccccc1 [Example 880, N-{2-[3-(4-benzyl-1-piperidinyl)propoxy]benzyl}-4-chloro-N-phenylbenzenesulfonamide hydrochloride]
IC50 [1]: > 500 nM

IC50 [6]: > 10000 nM
Compound: O=S(=O)(c1ccc(Cl)cc1)N(Cc1ccccc1OCc1cccnc1)c1ccccc1 [Example 1091, 4-chloro-N-phenyl-N-[2-(3-pyridinylmethoxy)benzyl]benzenesulfonamide hydrochloride]

Compound: C=C(C)CN(Cc1ccccc1OCCCN1CCCCC1)S(=O)(=O)c1ccc(Cl)cc1 [Example 955, 4-chloro-N-(2-methyl-2-propenyl)-N-{2-[3-(1-piperidinyl)propoxy]benzyl}benzenesulfonamide hydrochoride]
IC50 [2]: > 500 nM

Compound: C[C@H](CCCS(C)(=O)=O)N(c1cc(Cl)ccc1F)S(=O)(=O)c1ccc(Cl)cc1 [Example 1165, 4-chloro-N-[5-chloro-2-fluorophenyl]-N-[1(R)-methyl-(4-methylsulfonyl)butyl]benzenesulfonamide]
IC50 [5]: ≤ 25 nM

IC50 [4]: 100 to 500 nM
Compound: CC(C(=O)N[C@@H]1C[C@H]2CC[C@@H]1CC2)N(c1cc(Cl)ccc1F)S(=O)(=O)c1ccc(Cl)cc1 (stereo partly drawn) [Example 1358]

IC50 [2]: > 500 nM
Compound: 2,4-dichloro-N-{3-[2-({[(4-chlorophenyl)sulfonyl]-2,5-difluoroanilino}methyl)phenoxy]propyl}-5-fluoro-N-methylbenzamide [Example 896]

IC50 [3]: 100 to 500 nM
Compound: benzyl 3-[2-(1-{[(4-chlorophenyl)sulfonyl]-2,5-difluoroanilino}ethyl)phenoxy]propyl(methyl)carbamate [Example 678]

IC50 [1]: 100 to 500 nM
Compound: O=S(=O)(c1ccc(Cl)cc1)N(Cc1ccccc1OCCCSC1CCCCC1)c1cc(F)ccc1F [Example 869, 4-chloro-N-{2-[3-(cyclohexylsulfanyl)propoxy]benzyl}-N-(2,5-difluorophenyl)benzenesulfonamide]

Compound: O=S(=O)(c1ccc(Cl)cc1)N(Cc1ccccc1OCCCn1ccnc1)c1ccccc1 [Example 302, 4-Chloro-N-{2-[3-(1H-imidazol-1-yl)propoxy]benzyl}-N-phenylbenzenesulfonamide Hydrochloride]
IC50 (transfected H4 cells stably expressing APP, approximately 16 hours incubation, amyloid β in medium by ELISA, Table B, read-out: ACTIVITY (IC50, inhibition of amyloid β production)): 50 to 100 nM

IC50 [2]: > 500 nM
Compound: 3,4-dichloro-N-{3-[2-({[(4-chlorophenyl)sulfonyl]-2,5-difluoroanilino}methyl)phenoxy]propyl}-N-methylbenzamide [Example 932]

IC50 [3]: 100 to 500 nM
Compound: 2-((1R)-1-{[(4-chlorophenyl)sulfonyl]-2,5-difluoroanilino}ethyl)-5-fluorobenzyl 3-fluorobenzylcarbamate [Example 764]

IC50 [3]: 100 to 500 nM
Compound: N-{4-[2-(1-{[(4-chlorophenyl)sulfonyl]-2,5-difluoroanilino}ethyl)phenoxy]butyl}-N,2,4-trimethylpentanamide [Example 700]

Compound: C[C@H](CCCN(CCCn1ccnc1)CC1CC1)N(c1cc(Cl)ccc1Cl)S(=O)(=O)c1ccc(Cl)cc1 [Example 1135]
IC50 [5]: 100 to 500 nM

IC50 [1]: 100 to 500 nM
Compound: O=S(=O)(c1ccc(Cl)cc1)N(Cc1ccccc1OCCCN1CCCCC1)c1cc(Cl)cc(Cl)c1 [Example 816, 4-chloro-N-(3,5-dichlorophenyl)-N-{2-[3-(1-piperidinyl)propoxy]benzyl}benzenesulfonamide hydrochloride]

Compound: CC1CS(=O)(=O)CCN1C(=O)CCCC[C@@H](C)N(c1cc(Cl)ccc1F)S(=O)(=O)c1ccc(Cl)cc1 (stereo partly drawn) [Example 1273]
IC50 [5]: ≤ 25 nM

Compound: CSC1CCCN(CC[C@@H](C)N(c2cc(Cl)ccc2Cl)S(=O)(=O)c2ccc(Cl)cc2)C1 (stereo partly drawn) [Example 1159]
IC50 [5]: > 500 nM

IC50 [6]: 100 to 500 nM
Compound: C[C@H](CCCNC(=O)c1ccccc1)N(c1cc(Cl)ccc1Cl)S(=O)(=O)c1ccc(Cl)cc1 [Example 1149, 4-chloro-N-(2,5-dichlorophenyl)-N-[4-[[(phenyl)carbonyl]amino]-1-methylbutyl]benzenesulfonamide]

IC50 [3]: 100 to 500 nM
Compound: 2-((1R)-1-{[(4-chlorophenyl)sulfonyl]-2,5-difluoroanilino}ethyl)-5-fluorobenzyl sec-butylcarbamate [Example 795]

IC50 [1]: > 500 nM
Compound: O=S(=O)(c1ccc(Cl)cc1)N(Cc1cccnc1)Cc1ccccc1OCCCN1CCCCC1 [Example 945, 4-chloro-N-{2-[3-(1-piperidinyl)propoxy]benzyl}-N-(3-pyridinylmethyl)benzenesulfonamide hydrochloride]

IC50 (Table B, transfected H4 cells stably expressing APP, approximately 16 hours incubation, amyloid β in medium by ELISA, read-out: ACTIVITY (inhibitory concentration IC50, inhibition of amyloid β production)): ≤ 25 nM
Compound: C[C@H](CCCS(=O)(=O)Cl)N(c1cc(Cl)ccc1F)S(=O)(=O)c1ccc(Cl)cc1 [Example 43, (4R)-4-[N-[5-chloro-2-fluorophenyl][(4-chlorophenyl)sulfonyl]amino]pentylsulfonyl Chloride]

IC50 (Homo sapiens, 16 h, transfected H4 cells stably expressing APP, approx. 16 h incubation, amyloid β in medium by ELISA, read-out: ACTIVITY (IC50, inhibition of amyloid β production)): 100 to 500 nM
Compound: O=S(=O)(c1ccc(Cl)cc1)N(Cc1ccccc1OCCCN1CCCC1)c1ccccc1 [Example 718, 4-chloro-N-phenyl-N-{2-[3-(1-pyrrolidinyl)propoxy]benzyl}benzenesulfonamide hydrochloride]

IC50 [1]: 100 to 500 nM
Compound: C[C@H](c1ccccc1OCCCN)N(c1cc(F)ccc1F)S(=O)(=O)c1cccc(Cl)c1 [Example 836, N-{(1R)-1-[2-(3-aminopropoxy)phenyl}ethyl}-3-chloro-N-(2,5-difluorophenyl)benzenesulfonamide]

IC50 [6]: ≤ 25 nM
Compound: C[C@H](CCCS(=O)(=O)N(C)C)N(c1cc(F)ccc1F)S(=O)(=O)c1ccc(Cl)cc1 [Example 1206, 4-chloro-N-[2,5-difluorophenyl]-N-[4-[(dimethylamino)sulfonyl]-1(R)-methylbutyl]benzenesulfonamide]

IC50 [1]: > 500 nM
Compound: CC(C)N(C(=O)N(C)CCOc1ccccc1C(C)N(c1cc(F)ccc1F)S(=O)(=O)c1ccc(Cl)cc1)C(C)C (stereo not drawn) [Example 888, 4-chloro-N-(2,5-difluorophenyl)-N-[1-(2-{2-[[(diisopropylamino)carbonyl](methyl)amino]ethoxy}phenyl)ethyl]benzenesulfonamide]

IC50 [6]: ≤ 25 nM
Compound: CNS(=O)(=O)CCC[C@@H](C)N(c1cc(Cl)ccc1Cl)S(=O)(=O)c1ccc(Cl)cc1 [Example 1199, 4-chloro-N-[2,5-dichlorophenyl]-N-[4-[(methylamino)sulfonyl]-1(R)-methylbutyl]benzenesulfonamide]

Compound: CC(C)CS(=O)(=O)CCC[C@@H](C)N(c1cc(Cl)ccc1Cl)S(=O)(=O)c1ccc(Cl)cc1 [Example 1184]
IC50 [5]: 25 to 50 nM

IC50 [1]: 100 to 500 nM
Compound: O=C(/C=C\c1ccccc1)N1CCCCC1CCOc1ccccc1CN(c1cc(F)ccc1F)S(=O)(=O)c1ccc(Cl)cc1 (stereo not drawn) [Example 832, 4-chloro-N-(2,5-difluorophenyl)-N-[2-(2-{1-[(2Z)-3-phenyl-2-propenoyl]-2-piperidinyl}ethoxy)benzyl]benzenesulfonamide]

IC50 [4]: 100 to 500 nM
Compound: COCCCNC(=O)[C@@H](C)N(c1cc(Cl)ccc1F)S(=O)(=O)c1ccc(Cl)cc1 [Example 1346]

IC50 [3]: 100 to 500 nM
Compound: 2-((1R)-1-{[(4-chlorophenyl)sulfonyl]-2,5-difluoroanilino}ethyl)benzyl 2-(diethylamino)ethylcarbamate [Example 662]

IC50 [3]: 100 to 500 nM
Compound: 2-[2-((1R)-1-{[(4-chlorophenyl)sulfonyl]-2,5-difluoroanilino}ethyl)phenyl]ethyl 1,2,3,4-tetrahydro-1-naphthalenylcarbamate [Example 644]
